Assay results from patent publication US11110082B2, “Tyrosine kinase inhibitors” (Rigel Pharmaceuticals, Inc., priority 2016, dated 2021).

Biological target: T1, MerTK (Homo sapiens, UniProt Q12866)
T1 construct: Seed HUVECs (10K cells/well) in EBM-2 complete media; host or cells: HUVEC (primary human umbilical vein endothelial cells)
T1 sequence (Q12866 21-999): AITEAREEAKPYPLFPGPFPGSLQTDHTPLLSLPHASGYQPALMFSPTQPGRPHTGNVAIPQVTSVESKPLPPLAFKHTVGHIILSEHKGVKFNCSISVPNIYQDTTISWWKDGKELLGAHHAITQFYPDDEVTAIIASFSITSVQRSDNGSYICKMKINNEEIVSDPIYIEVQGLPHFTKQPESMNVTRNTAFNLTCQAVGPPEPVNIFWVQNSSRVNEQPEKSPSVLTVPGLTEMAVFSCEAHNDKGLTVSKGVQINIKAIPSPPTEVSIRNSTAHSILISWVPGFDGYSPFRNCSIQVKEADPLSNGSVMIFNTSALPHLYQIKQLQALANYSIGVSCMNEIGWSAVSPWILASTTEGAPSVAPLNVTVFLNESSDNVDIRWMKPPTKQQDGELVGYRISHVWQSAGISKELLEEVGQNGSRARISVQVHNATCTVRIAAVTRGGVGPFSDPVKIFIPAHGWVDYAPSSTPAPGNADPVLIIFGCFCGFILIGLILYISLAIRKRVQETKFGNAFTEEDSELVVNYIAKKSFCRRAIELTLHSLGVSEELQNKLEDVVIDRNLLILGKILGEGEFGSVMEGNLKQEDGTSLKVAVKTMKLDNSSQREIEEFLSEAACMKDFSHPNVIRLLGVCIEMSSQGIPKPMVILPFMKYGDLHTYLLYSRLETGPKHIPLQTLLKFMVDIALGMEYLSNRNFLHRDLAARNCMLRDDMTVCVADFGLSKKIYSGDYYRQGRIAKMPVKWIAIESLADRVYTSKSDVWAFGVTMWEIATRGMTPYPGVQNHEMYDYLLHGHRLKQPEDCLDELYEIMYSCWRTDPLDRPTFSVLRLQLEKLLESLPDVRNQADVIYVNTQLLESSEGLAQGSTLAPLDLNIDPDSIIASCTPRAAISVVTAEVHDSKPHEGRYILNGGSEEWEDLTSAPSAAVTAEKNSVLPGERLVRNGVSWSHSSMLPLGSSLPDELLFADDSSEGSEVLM
Assay: PAKT HTRF-HUVEC assay (pAkt Ser473 HTRF after anti-human MerTK-XL stimulation)
Format: cell-based
Details: HUVEC cells, 1 hour compound, stimulated with anti-human MerTK-XL 1 ug/mL for 10 minutes, read-out: inhibition of MerTK
Method in brief: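 Akt Ser473 phosphorylation measured by HTRF in lysates of serum-starved HUVECs. Cells received compound for 1 h at 37° C before a 10-min challenge with antibody-cross-linked anti-MerTK (1 ug/mL final); EC50 derived by curve fit.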

| Structure (SMILES) | EC50 [nM] |
| --- | --- |
| O=c1c2cc(CN3CCC4(CC3)COC4)ccc2c2cnc(NC3CC(F)(F)C3)nc2n1[C@H]1CC[C@H](O)CC1 [Compound 210, trans-8-((2-Oxa-7-azaspiro[3.5]nonan-7-yl)methyl)-3-((3,3-difluorocyclobutyl)amino)-5-(4-hydroxycyclohexyl)pyrimido[4,5-c]isoquinolin-6(5H)-one] | 85.6 |
| O=c1c2cc(N3CCN4CCC3CC4)ccc2c2cnc(NCC3CC3)nc2n1C1CCC(O)CC1 (centres unmarked) [Compound 163] | 113 |
| CCC[C@H](C)Nc1ncc2c3ccc(CN4CCN(C)CC4)cc3c(=O)n([C@H]3CC[C@H](O)CC3)c2n1 [Compound 213, trans-5-(4-hydroxycyclohexyl)-8-((4-methylpiperazin-1-yl)methyl)-3-(((S)-pentan-2-yl)amino)pyrimido[4,5-c]isoquinolin-6(5H)-one] | 30.4 |
| O=c1c2cc(N3CC4(COC4)C3)ccc2c2cnc(NC3CC(F)(F)C3)nc2n1[C@H]1CC[C@H](O)CC1 [Compound 67, trans-3-((3,3-difluorocyclobutyl)amino)-5-(4-hydroxycyclohexyl)-8-(2-oxa-6-azaspiro[3.3]heptan-6-yl)pyrimido[4,5-c]isoquinolin-6(5H)-one] | 8030 |
| O=c1c2cc(CN3CCNCC3)ccc2c2cnc(NCC3CC3)nc2n1[C@H]1CC[C@H](O)CC1 [Compound 54, trans-3-((Cyclopropylmethyl)amino)-5-(4-hydroxycyclohexyl)-8-(piperazin-1-ylmethyl)pyrimido[4,5-c]isoquinolin-6(5H)-one] | 309 |
| CN1CCN(Cc2ccc3c(c2)c(=O)n([C@H]2CC[C@H](NC(=O)CC#N)CC2)c2nc(NCC4CC4)ncc32)CC1 [Compound 190, trans-2-Cyano-N-(4-(3-((cyclopropylmethyl)amino)-8-((4-methylpiperazin-1-yl)methyl)-6-oxopyrimido[4,5-c]isoquinolin-5(6H)-yl)cyclohexyl)acetamide] | 73 |
| C[C@@H]1CN(c2ccc3c(c2)c(=O)n([C@H]2CC[C@H](O)CC2)c2nc(NCC4CC4)ncc32)[C@@H](C)CN1C [Compound 107, trans-3-((Cyclopropylmethyl)amino)-5-(4-hydroxycyclohexyl)-8-((2S,5R)-2,4,5-trimethylpiperazin-1-yl)pyrimido[4,5-c]isoquinolin-6(5H)-one] | 58.2 |
| CCC[C@H](C)Nc1ncc2c3ccc(CN4CCC5(CC4)COC5)cc3c(=O)n([C@H]3CC[C@H](O)CC3)c2n1 [Compound 214, trans-8-((2-oxa-7-azaspiro[3.5]nonan-7-yl)methyl)-5-(4-hydroxycyclohexyl)-3-(((5)-pentan-2-yl)amino)pyrimido[4,5-c]isoquinolin-6(5H)-one] | 10.5 |
| O=c1c2cc(CN3CCn4ncnc4C3)ccc2c2cnc(NCC3CC3)nc2n1[C@H]1CC[C@H](O)CC1 [Compound 151] | 64.6 |
| CC1(O)CCC(n2c(=O)c3cc(CN4CCC(N5CCCC5)CC4)ccc3c3cnc(NCC4CC4)nc32)CC1 (centres unmarked) [Compound 150] | 33.3 |
| C[C@@H]1CN(Cc2ccc3c(c2)c(=O)n([C@H]2CC[C@H](O)CC2)c2nc(NCC4CC4)ncc32)CCN1C [Compound 175] | 36.4 |
| CCCCNc1ncc2c3ccc(CN4CCOCC4)cc3c(=O)n([C@H]3CC[C@@H](O)CC3)c2n1 [Compound 4, cis-3-(Butylamino)-5-(4-hydroxycyclohexyl)-8-(morpholinomethyl)pyrimido [4,5-c]isoquinolin-6(5H)-one] | 174 |
| O=c1c2ccccc2c2cnc(NCCC3CC3)nc2n1[C@H]1CC[C@H](O)CC1 [Compound 120, trans-3-((2-Cyclopropylethyl)amino)-5-(4-hydroxycyclohexyl)pyrimido [4,5-c]isoquinolin-6(5H)-one] | 352 |
| CCCCNc1ncc2c3ccc(N4CCN5CCC4CC5)cc3c(=O)n(C3CCC(=O)CC3)c2n1 [Compound 82, 8-(1,4-Diazabicyclo[3.2.2]nonan-4-yl)-3-(butylamino)-5-(4-oxocyclohexyl)pyrimido[4,5-c]isoquinolin-6(5H)-one] | 216 |
| CCCCNc1ncc2c3ccc(CN4CCN(C)CC4)cc3c(=O)n(CC3CCC(O)CC3)c2n1 (centres unmarked) [Compound 6, 3-(Butylamino)-5-((4-hydroxycyclohexyl)methyl)-8-((4-methylpiperazin-1-yl)methyl)pyrimido[4,5-c]isoquinolin-6(5H)-one] | 2040 |
| CCC(F)(F)CNc1ncc2c3ccc(N4CCN(C)CC4)cc3c(=O)n([C@H]3CC[C@H](O)CC3)c2n1 [Compound 93, trans-3-((2,2-Difluorobutyl)amino)-5-(4-hydroxycyclohexyl)-8-(4-methylpiperazin-1-yl)pyrimido[4,5-c]isoquinolin-6(5H)-one] | 358 |
| O=c1c2cc(CN3CCN4CCC[C@@H]4C3)ccc2c2cnc(NCC3CC3)nc2n1[C@H]1CC[C@H](O)CC1 [Compound 159] | 48.7 |
| O=c1c2cc(CN3CCOCC3)ccc2c2cnc(NCCC3CC3)nc2n1[C@H]1CC[C@H](O)CC1 [Compound 27, trans-3-((2-Cyclopropylethyl)amino)-5-(4-hydroxycyclohexyl)-8-(morpholinomethyl)pyrimido [4,5-c]isoquinolin-6(5H)-one] | 45.9 |
| CC(C)N1CCN(Cc2ccc3c(c2)c(=O)n(C2CCC(C)(O)CC2)c2nc(NCCC4CC4)ncc32)CC1 (stereo not drawn) [Compound 32, trans-3-((2-Cyclopropylethyl)amino)-5-(4-hydroxy-4-methylcyclohexyl)-8-((4-isopropylpiperazin-1-yl)methyl)pyrimido[4,5-c]isoquinolin-6(5H)-one] | 6.5 |
| CC1(O)CCN(Cc2ccc3c(c2)c(=O)n(C2CCC(O)CC2)c2nc(NCC4CC4)ncc32)CC1 (centres unmarked) [Compound 145, 3-((cyclopropylmethyl)amino)-8-((4-hydroxy-4-methylpiperidin-1-yl)methyl)-5-((1s,4s)-4-hydroxycyclohexyl)pyrimido[4,5-c]isoquinolin-6(5H)-one] | 25.7 |
| CN1CCN(Cc2ccc3c(c2)c(=O)n([C@H]2CC[C@H](O)CC2)c2nc(NC4CC(F)C4)ncc32)CC1 (stereo partly drawn) [Compound 13, trans-3-((3-Fluorocyclobutyl)amino)-5-(4-hydroxycyclohexyl)-8-((4-methylpiperazin-1-yl)methyl)pyrimido[4,5-c]isoquinolin-6(5H)-one] | 144 |
| CN1CCN(c2ccc3c(c2)c(=O)n([C@H]2CC[C@](C)(O)CC2)c2nc(NCCC4CC4)ncc32)CC1 [Compound 98, trans-3-((2-Cyclopropylethyl)amino)-5-(4-hydroxy-4-methylcyclohexyl)-8-(4-methylpiperazin-1-yl)pyrimido[4,5-c]isoquinolin-6(5H)-one] | 35.7 |
| O=c1c2cc(CN3CCn4ncnc4C3)ccc2c2cnc(NCC3CC3)nc2n1[C@H]1CC[C@H](O)CC1 [Compound 39, trans-3-((Cyclopropylmethyl)amino)-8-((5,6-dihydro-[1,2,4]triazolo[1,5-a]pyrazin-7(8H)-yl)methyl)-5-(4-hydroxycyclohexyl)pyrimido [4,5-c]isoquinolin-6(5H)-one] | 64.6 |
| CCCCNc1ncc2c3ccc(CN4CCN(C)CC4)cc3c(=O)n([C@H]3CC[C@@H](O)CC3)c2n1 [Compound 5, cis-3-(Butylamino)-5-(4-hydroxycyclohexyl)-8-((4-methylpiperazin-1-yl)methyl)pyrimido[4,5-c]isoquinolin-6(5H)-one] | 98 |
| CN1CCN(Cc2ccc3c(c2)c(=O)n(C2CCN(C(=O)OC(C)(C)C)CC2)c2nc(NCC4CC4)ncc32)CC1 [Compound 188] | 11300 |
| CCCCNc1ncc2c3ccc(N4CCN(C)CC4)cc3c(=O)n([C@H]3CC[C@@H](O)CC3)c2n1 [Compound 63, cis-3-(Butylamino)-5-(4-hydroxycyclohexyl)-8-(4-methylpiperazin-1-yl)pyrimido[4,5-c]isoquinolin-6(5H)-one] | 138 |
| O=c1c2cc(N3CCn4ncnc4C3)ccc2c2cnc(NCC3CC3)nc2n1[C@H]1CC[C@H](O)CC1 [Compound 164] | 296 |
| CN1CCN(c2ccc3c(c2)c(=O)n([C@H]2CC[C@H](O)CC2)c2nc(NCC4CC4)ncc32)CC1 [Compound 87, trans-3-((Cyclopropylmethyl)amino)-5-(4-hydroxycyclohexyl)-8-(4-methylpiperazin-1-yl)pyrimido[4,5-c]isoquinolin-6(5H)-one] | 115 |
| CCCCNc1ncc2c3ccc(CN4CCN(C)CC4)cc3c(=O)n([C@@H]3CC[C@@H](O)C3)c2n1 [Compound 235, 3-(butylamino)-5-((1R,3R)-3-hydroxycyclopentyl)-8-((4-methylpiperazin-1-yl)methyl)pyrimido[4,5-c]isoquinolin-6(5H)-one] | 264 |
